In PubChem BioAssay (NCI):
“And” between values parts separate entries of the source, which are not always exact repeats. Equal entries are not always repeated.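 Where inhibition never reached the appropriate level, the endpoint shown equals the highest concentration tested. Otherwise, values were interpolated linearly from a five-concentration, 48-hour dose response in 96-well plates. The concentration for 50% growth inhibition is given as GI50. At the TGI there is no net growth.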

Assays:
Assay in all cases: NCI-60 cell line screen, 48 h
IGROV1 ovarian = tested on: IGROV1 ovarian
RXF 393 renal = tested on: RXF 393 renal
SK-OV-3 ovarian = tested on: SK-OV-3 ovarian
SR leukemia = tested on: SR leukemia
HCT-15 colon = tested on: HCT-15 colon
786-0 renal = tested on: 786-0 renal
CAKI-1 renal = tested on: CAKI-1 renal
NCI-H23 lung = tested on: NCI-H23 lung
NCI-H226 lung = tested on: NCI-H226 lung

Row | Compound | GI50 (IGROV1 ovarian) [µM] | TGI (IGROV1 ovarian) [µM] | GI50 (RXF 393 renal) [µM] | TGI (RXF 393 renal) | GI50 (SK-OV-3 ovarian) | TGI (SK-OV-3 ovarian) [µM] | GI50 (SR leukemia) [µM] | TGI (SR leukemia) | GI50 (HCT-15 colon) | TGI (HCT-15 colon) | GI50 (786-0 renal) | TGI (786-0 renal) | GI50 (CAKI-1 renal) | TGI (CAKI-1 renal) | GI50 (NCI-H23 lung) | TGI (NCI-H23 lung) | GI50 (NCI-H226 lung) [µM] | TGI (NCI-H226 lung)
1 | N#Cc1ccc(NC(=O)C(CC(=O)OCc2ccccc2)NC(=O)OCc2ccccc2)cc1 (stereo not given) | > 100 | > 100 | > 100 | > 100 µM | > 100 µM | > 100 | > 100 | > 100 µM | > 100 µM | > 100 µM | > 100 µM | > 100 µM | > 100 µM | > 100 µM | > 100 µM | > 100 µM | – | –
2 | O=C(N/N=C/c1ccccc1O)c1ccccc1 | 1.84 | > 100 | 2.68 | 50.9 µM | 5.14 µM | > 100 | 1.79 | 28.4 µM | 0.893 µM | > 100 µM | 0.339 µM | 1.83 µM | – | – | 4.92 µM | > 100 µM | 1.94 | 17.4 µM
3 | COc1ccc(C(=O)c2ccc([As]=O)cc2)cc1 (stereo not given) | 0.0363 | 0.158 | 0.059 | 0.188 µM | 0.181 µM | 0.346 | – | – | 0.0259 µM | 0.11 µM | 0.0605 µM | 0.191 µM | 0.064 µM | 0.201 µM | 0.108 µM | 0.322 µM | 0.169 | 0.459 µM
4 | NC(=S)NN/C=C(\C=Nc1ccccc1)[N+](=O)[O-] | – | > 100 | – | > 100 µM | – | > 100 | – | – | – | > 100 µM | – | > 100 µM | – | > 100 µM | – | > 100 µM | – | > 100 µM
5 | CC(C)(C)c1cc(C=C(C#N)C#N)cc(C(C)(C)C)c1O | 0.493 | > 247 | 0.482 | 14.3 µM and 10.5 µM | 0.229 µM and 0.302 µM | – | 0.318 | 12.6 µM and 11 µM | – | 14.1 µM and 19.9 µM | 0.393 µM | 10.9 µM and 16.4 µM | – | – | 0.194 µM | – | 0.371 | 1.51 µM and 14.8 µM
6 | O=c1c2cc(Br)ccc2nc(CCl)n1-c1ccc(O)c([N+](=O)[O-])c1 | – | 51.6 | – | 25.7 µM | – | 93.5 | – | – | – | 41.2 µM | – | 31.8 µM | – | 49.3 µM | – | 35.8 µM | – | 29.3 µM
7 | O=C1CCCCN1CCCCC#Cc1cccc(C#Cc2cccnc2)c1 | 14.7 | 43.1 | – | – | 16.4 µM | 32.2 | – | – | 3.96 µM | 17.7 µM | 13 µM | 27.8 µM | 35.5 µM | > 100 µM | 17.1 µM | 37.7 µM | 12.9 | 34 µM
8 | CCCCCCCCCCCCCCCC[N+]1(C)CCOCC1 | – | – | – | – | 2.2 µM | 7.36 | 1.28 | 4.66 µM | 2.55 µM | 7.99 µM | 1.52 µM | 2.99 µM | 5.32 µM | 22.5 µM | 2.2 µM | 12.2 µM | – | –
9 | CSC(=NCCc1c[nH]c2ccccc12)NC#N | – | > 100 | – | > 100 µM | – | > 100 | – | > 100 µM | – | > 100 µM | – | > 100 µM | – | – | – | > 100 µM | – | > 100 µM
10 | Cc1ccc(NC(=O)c2cc(S(=O)(=O)N3C(=O)NC(=O)NS3(=O)=O)c(S)cc2Cl)cc1 | 26.1 | 90.4 | 11.5 | 54.5 µM | 67.8 µM | > 100 | – | – | 33.2 µM | > 100 µM | 40.4 µM | > 100 µM | 30.6 µM | 60.9 µM | 32.3 µM | 99.6 µM | 30.6 | 76.6 µM
11 | c1ccc(N2N=C(c3ccco3)CC2c2ccco2)cc1 (stereo not given) | – | > 100 | – | > 100 µM | – | – | – | > 100 µM | – | > 100 µM | – | > 100 µM | – | – | – | > 100 µM | – | > 100 µM
12 | CCC1=CC2CN(C1)Cc1c([nH]c3ccccc13)[C@@](C(=O)OC)(c1cc3c(cc1OC)N(C)[C@H]1[C@@](O)(C(=O)OC)[C@H](OC(C)=O)[C@]4(CC)C=CCN5CC[C@]31[C@@H]54)C2 (stereo not given in full) | – | – | – | – | – | 11.8 | < 0.005 | 9.27 µM | 0.277 µM and 0.416 µM | 50 µM and > 100 µM | 0.0514 µM and 0.0773 µM | 16.7 µM and > 100 µM | 7.86 µM and 6.85 µM | 50 µM and > 100 µM | 0.0176 µM and 0.0134 µM | 50 µM and > 100 µM | 19.8 | 50 µM
13 | N/N=C1\C(=O)N(CCc2ccccc2)C(=O)C1C(=O)NCCc1ccccc1 (stereo not given) | – | > 100 | – | – | – | > 100 | – | > 100 µM | – | – | – | > 100 µM | – | > 100 µM | – | > 100 µM | – | > 100 µM
14 | C[C@H]1CCCC(O)C(O)[C@@H]2C[C@H](O[Si](C)(C)C(C)(C)C)C[C@H]2[C@H](O[Si](C)(C)C(C)(C)C)C(O)C(O)C(=O)O1 (stereo not given in full) | 16.2 | 43 | 31.8 | > 100 µM | 54.6 µM | > 100 | – | – | – | – | 10.6 µM | 22.3 µM | 23.5 µM | 89.7 µM | – | – | – | –
15 | C=C1C(=O)O[C@H]2[C@H]1CC/C(C=Nc1c(N)cc(C(F)(F)F)cc1Br)=C\CC[C@@]1(C)O[C@@H]21 | 1.42 | 3.01 | 1.59 | 3.11 µM | 6.56 µM | 18.9 | 1.08 | 6.73 µM | 1.55 µM | 4.24 µM | 2.14 µM | 3.91 µM | – | – | 1.84 µM | 4.41 µM | 2.09 | 5.29 µM
16 | COc1cc(NCCCCCCCNC(C)C)c2nccc(C)c2c1 | 13.3 | 34.5 | 15.4 | 33.7 µM | 13.7 µM | 27.1 | – | – | 12.2 µM | 27.3 µM | 14.8 µM | 28.6 µM | 12.2 µM | 25.6 µM | 12.1 µM | 26.2 µM | 14.6 | 34.3 µM
17 | O=c1oc2ccc(I)cc2c(=O)n1-c1ccc(Cl)cc1F | 1.19 | 21.1 | 1.44 | 5.32 µM | – | – | 1.13 | > 100 µM | 2.37 µM | 12.6 µM | 3.14 µM | 10.5 µM | 1.09 µM | 5.61 µM | 1.61 µM | 7.68 µM | 1.96 | 8.53 µM
18 | CC(=O)c1ccc(O)c(CN(C2CCCCC2)C2CCCCC2)c1O | – | > 100 | – | > 100 µM | – | > 100 | – | – | – | > 100 µM | – | > 100 µM | – | > 100 µM | – | > 100 µM | – | > 100 µM
